Measured values taken from ChEMBL document CHEMBL1201862, “PubChem BioAssay data set” (2004).
Calls of active or inactive are those of the source.

What was measured:
Coagulation factor XII = target: T1, Coagulation factor XII (Homo sapiens, UniProt P00748); format: functional;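 also: activated factor XIIa alpha cleaving a fluorogenic AMC peptide substrate; inhibitor potency from loss of enzyme activity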
T1 sequence (P00748 whole entry): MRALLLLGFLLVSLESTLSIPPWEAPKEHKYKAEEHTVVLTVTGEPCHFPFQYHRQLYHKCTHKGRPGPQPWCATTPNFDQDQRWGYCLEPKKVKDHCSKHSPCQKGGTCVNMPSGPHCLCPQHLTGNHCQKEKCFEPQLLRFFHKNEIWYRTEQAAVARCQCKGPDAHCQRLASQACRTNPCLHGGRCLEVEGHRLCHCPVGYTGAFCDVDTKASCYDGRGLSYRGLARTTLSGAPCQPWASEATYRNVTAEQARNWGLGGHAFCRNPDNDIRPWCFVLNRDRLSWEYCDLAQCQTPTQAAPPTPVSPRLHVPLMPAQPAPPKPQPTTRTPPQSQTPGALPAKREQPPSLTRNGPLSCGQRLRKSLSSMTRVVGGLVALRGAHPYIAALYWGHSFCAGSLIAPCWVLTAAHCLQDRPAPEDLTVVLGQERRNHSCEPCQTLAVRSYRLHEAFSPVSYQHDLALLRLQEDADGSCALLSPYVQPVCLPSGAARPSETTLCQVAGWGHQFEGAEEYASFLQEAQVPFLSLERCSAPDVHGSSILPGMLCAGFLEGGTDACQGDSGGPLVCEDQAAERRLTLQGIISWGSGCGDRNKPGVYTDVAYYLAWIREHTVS

Large T antigen = Large T antigen (Simian virus 40, UniProt P03070); format: functional, Betapolyomavirus macacae;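 also: Confirmatory-stage PubChem screen for compounds that inhibit SV40 T antigen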
Large T antigen, sequence (P03070 whole entry): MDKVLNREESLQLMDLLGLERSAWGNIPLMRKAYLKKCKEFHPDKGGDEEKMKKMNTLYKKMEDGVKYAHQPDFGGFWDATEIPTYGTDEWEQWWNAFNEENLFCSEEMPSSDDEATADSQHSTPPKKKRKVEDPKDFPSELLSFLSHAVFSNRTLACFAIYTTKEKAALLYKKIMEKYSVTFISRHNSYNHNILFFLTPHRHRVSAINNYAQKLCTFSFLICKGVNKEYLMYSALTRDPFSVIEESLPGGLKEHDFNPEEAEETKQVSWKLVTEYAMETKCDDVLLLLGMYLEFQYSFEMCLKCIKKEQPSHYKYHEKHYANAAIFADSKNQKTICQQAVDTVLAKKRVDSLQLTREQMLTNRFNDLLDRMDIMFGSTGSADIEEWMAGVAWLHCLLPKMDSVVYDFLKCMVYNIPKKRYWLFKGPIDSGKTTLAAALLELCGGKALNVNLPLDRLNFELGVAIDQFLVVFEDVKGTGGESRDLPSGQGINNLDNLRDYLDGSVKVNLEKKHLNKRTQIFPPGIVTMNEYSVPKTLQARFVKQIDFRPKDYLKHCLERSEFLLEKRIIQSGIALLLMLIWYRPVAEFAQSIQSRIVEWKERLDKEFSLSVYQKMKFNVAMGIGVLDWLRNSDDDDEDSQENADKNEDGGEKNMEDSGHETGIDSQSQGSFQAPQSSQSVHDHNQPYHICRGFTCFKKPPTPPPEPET

[1] = target: Delta-type opioid receptor (Homo sapiens, UniProt P41143); assay: Counterscreen for agonists of heterodimerization of the mu 1 (OPRM1) and delta 1 (OPRD1) opioid receptors: Luminescence-based cell-based high throughput dose response assay to identify agonists of OPRD1 homodimerization. [Related pubchem assays (depositor defined):AID504326, AID504355, AID504692, AID504904, AID504905]; format: functional
Delta-type opioid receptor, sequence (P41143 whole entry): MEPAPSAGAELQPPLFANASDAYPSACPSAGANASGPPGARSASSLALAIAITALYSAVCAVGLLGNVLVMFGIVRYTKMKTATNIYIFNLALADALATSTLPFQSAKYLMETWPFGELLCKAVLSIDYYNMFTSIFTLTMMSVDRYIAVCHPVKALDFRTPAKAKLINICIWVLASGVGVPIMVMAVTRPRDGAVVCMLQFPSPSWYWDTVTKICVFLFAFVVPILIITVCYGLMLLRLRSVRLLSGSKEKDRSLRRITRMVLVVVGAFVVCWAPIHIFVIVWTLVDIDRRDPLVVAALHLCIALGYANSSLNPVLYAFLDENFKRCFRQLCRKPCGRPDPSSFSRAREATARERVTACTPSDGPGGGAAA

[2] = target: 5-hydroxytryptamine receptor 5A (Homo sapiens, UniProt P47898); assay: Counterscreen for agonists of OPRM1-OPRD1 heterodimerization: luminescence-based cell-based high throughput dose response assay to identify agonists of 5-hydroxytryptamine (serotonin) 5A receptor (HTR5A). [Related pubchem assays (depositor defined):AID504326, AID504355, AID504692, AID504904, AID504905]; format: functional
5-hydroxytryptamine receptor 5A, sequence (P47898 whole entry): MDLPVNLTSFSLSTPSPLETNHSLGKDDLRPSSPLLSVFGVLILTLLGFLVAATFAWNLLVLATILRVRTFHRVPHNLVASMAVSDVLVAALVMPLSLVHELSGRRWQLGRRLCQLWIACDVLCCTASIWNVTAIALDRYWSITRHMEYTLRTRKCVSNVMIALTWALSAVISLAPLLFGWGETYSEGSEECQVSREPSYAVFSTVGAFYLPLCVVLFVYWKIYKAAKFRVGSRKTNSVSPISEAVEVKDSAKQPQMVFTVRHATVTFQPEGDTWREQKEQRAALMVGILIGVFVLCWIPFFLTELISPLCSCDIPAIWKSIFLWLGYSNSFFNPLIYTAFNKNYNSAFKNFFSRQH

Mu-type opioid receptor = Mu-type opioid receptor (Homo sapiens, UniProt P35372); assay: Counterscreen for agonists of heterodimerization of the mu 1 (OPRM1) and delta 1 (OPRD1) opioid receptors: Luminescence-based cell-based high throughput dose response assay to identify agonists of OPRM1 homodimerization.; format: functional;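 also: U2OS cells expressing OPRM1 and beta-arrestin as split beta-galactosidase partners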
Mu-type opioid receptor, sequence (P35372 whole entry): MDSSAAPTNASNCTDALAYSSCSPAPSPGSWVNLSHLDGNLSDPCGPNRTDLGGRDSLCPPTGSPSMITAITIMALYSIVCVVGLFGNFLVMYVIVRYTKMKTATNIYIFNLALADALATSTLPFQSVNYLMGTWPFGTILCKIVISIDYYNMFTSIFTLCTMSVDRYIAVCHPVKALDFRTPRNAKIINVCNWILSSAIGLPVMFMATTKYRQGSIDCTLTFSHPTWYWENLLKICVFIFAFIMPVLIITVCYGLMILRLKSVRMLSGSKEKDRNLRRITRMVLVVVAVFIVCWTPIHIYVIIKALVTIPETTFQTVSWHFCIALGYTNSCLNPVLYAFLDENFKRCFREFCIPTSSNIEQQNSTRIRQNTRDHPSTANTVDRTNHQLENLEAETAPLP

[3] = target: T2, Ubiquitin-conjugating enzyme E2 N (Homo sapiens, UniProt P61088); format: functional
T2 sequence (P61088 whole entry): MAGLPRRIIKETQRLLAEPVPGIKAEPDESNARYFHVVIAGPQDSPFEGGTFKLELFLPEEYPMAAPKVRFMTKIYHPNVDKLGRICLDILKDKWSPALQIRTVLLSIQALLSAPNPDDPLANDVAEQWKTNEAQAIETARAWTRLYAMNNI

Bcl-2-related protein A1 = target: T3, Bcl-2-related protein A1 (Mus musculus, UniProt Q07440); format: functional;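 also: confirmatory dose–response counterscreen on Bfl-1, used to check hits from a UBC13 polyubiquitin inhibitor campaign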
T3 sequence (Q07440 whole entry): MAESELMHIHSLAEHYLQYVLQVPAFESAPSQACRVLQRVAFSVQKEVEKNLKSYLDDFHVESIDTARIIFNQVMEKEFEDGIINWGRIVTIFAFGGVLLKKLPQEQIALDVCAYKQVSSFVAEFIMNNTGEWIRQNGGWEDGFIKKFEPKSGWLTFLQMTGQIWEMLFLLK

[4] = target: T2, Ubiquitin-conjugating enzyme E2 N; format: functional; remark: listed apart in the source
[5] = inhibitors of firefly luciferase expression or activity, dose response, H4 neuroglioma cells, luminescence (AID 1990); format: functional, cell-based
Streptococcus = assay: Group A Streptococcus viability loss, dose response, counter-screen for streptokinase expression inhibitor project, luminescence, BacTiterGlo (AID 1915); format: functional, organism-based;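 also: potency for reduction of bacterial viability or growth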
[6] = inhibitors of SNCA 5'UTR-driven reporter translation, confirmation, H4 neuroglioma cells, luminescence (AID 1988); format: functional, cell-based
[7] = Luminescence Cell-Based Dose Response HTS to Identify Inhibitors of 5'UTR Stem-Loop Driven Prion Protein mRNA Translation in H4 Neuroglioblastoma Cells. [Related pubchem assays: 1827 (Project Summary), 1813 (Primary HTS)]; format: functional
INS1 = assay: beta cell apoptosis inhibitors, cytokine rescue, dose response, luminescence, retest (AID 449756); format: functional, cell-based; settings: Rattus norvegicus;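 also: cell death triggered by IL-1 beta plus TNF-alpha plus IFN-gamma mixture; protective hits raise ATP signal compared with cytokine alone wells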
[8] = tested on: Streptococcus sp. 'group A'; assay: growth inhibition of control SK(-) GAS strain, dose response, counter-screen for streptokinase expression inhibitor project, luminescence, kanamycin, BacTiterGlo, confirmation (AID 1900); format: functional, organism-based
Genome polyprotein = Genome polyprotein (dengue virus type 2, UniProt P29990); assay: Dengue-2 NS5 methyltransferase inhibitors, primary screen, biochemical, confirmation dose response (AID 588689); format: functional
Genome polyprotein, sequence (P29990 2492-3391 limits assumed): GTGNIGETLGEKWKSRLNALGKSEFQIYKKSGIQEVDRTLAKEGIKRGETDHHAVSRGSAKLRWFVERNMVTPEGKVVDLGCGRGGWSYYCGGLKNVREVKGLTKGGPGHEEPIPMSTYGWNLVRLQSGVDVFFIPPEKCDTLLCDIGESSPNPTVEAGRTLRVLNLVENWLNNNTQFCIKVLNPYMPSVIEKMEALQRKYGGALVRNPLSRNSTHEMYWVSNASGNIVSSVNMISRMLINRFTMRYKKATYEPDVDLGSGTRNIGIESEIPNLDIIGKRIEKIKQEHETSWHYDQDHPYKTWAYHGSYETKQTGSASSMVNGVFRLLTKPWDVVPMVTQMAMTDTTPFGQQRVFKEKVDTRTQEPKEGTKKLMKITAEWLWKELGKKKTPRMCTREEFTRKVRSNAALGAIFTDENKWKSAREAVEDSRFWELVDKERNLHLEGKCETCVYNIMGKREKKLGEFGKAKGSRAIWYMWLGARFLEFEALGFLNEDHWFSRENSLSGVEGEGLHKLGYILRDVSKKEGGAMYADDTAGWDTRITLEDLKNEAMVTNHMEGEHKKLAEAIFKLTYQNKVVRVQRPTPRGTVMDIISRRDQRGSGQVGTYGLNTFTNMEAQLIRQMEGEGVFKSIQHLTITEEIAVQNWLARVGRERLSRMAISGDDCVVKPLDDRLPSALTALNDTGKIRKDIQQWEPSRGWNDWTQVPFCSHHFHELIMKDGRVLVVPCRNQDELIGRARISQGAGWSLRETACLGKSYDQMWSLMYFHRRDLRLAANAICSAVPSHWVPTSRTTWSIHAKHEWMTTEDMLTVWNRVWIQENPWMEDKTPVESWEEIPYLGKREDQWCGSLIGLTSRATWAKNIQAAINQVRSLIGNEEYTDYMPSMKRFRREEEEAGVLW

[9] = target: Glucose-6-phosphate 1-dehydrogenase (Homo sapiens, UniProt P11413); assay: human G6PD enzyme inhibitors, dose response, selectivity assay for P. falciparum G6PD inhibitor project, biochemical, fluorescence (AID 504792); format: functional
Glucose-6-phosphate 1-dehydrogenase, sequence (P11413 whole entry): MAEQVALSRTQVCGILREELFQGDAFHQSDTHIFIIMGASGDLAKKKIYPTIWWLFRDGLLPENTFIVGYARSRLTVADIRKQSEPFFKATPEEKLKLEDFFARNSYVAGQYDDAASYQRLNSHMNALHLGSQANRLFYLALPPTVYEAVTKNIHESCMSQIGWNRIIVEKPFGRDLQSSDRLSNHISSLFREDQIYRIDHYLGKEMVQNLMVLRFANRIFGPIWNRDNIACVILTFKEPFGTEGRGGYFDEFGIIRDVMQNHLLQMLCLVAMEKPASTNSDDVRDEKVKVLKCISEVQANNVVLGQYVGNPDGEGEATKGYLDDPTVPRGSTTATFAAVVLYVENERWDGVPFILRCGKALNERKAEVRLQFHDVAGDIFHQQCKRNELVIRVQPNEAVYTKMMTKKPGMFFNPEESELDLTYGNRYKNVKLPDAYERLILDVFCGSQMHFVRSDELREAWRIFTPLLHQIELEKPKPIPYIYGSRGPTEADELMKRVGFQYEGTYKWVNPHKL

[10] = target: FAD-linked sulfhydryl oxidase ALR (Homo sapiens, UniProt P55789); assay: inhibitors of human ALR sulfhydryl oxidase, dose response, biochemical, H2O2 detection, luminescence, cherry-pick (AID 493248)
FAD-linked sulfhydryl oxidase ALR, sequence (P55789 whole entry): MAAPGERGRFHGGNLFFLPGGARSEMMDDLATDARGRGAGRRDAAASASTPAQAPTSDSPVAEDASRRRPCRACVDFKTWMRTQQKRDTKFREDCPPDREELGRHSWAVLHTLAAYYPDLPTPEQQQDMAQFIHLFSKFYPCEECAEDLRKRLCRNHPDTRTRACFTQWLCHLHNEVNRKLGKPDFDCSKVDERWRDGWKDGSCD

HEK293 [11] = assay: cells; format: functional, cell-based; settings: Homo sapiens
HEK293 [12] = assay: NOD2 signaling inhibitors in MDP-stimulated cells, cell-based, uHTS, luminescence (AID 2001); format: functional; settings: Homo sapiens
HEK293 [13] = assay: NOD1 signaling inhibitors, primary screen, cell-based, luminescence, uHTS (AID 1578); format: functional; settings: Homo sapiens
[14] = target: DNA dC->dU-editing enzyme APOBEC-3G (Homo sapiens, UniProt Q9HC16); assay: Dose Response confirmation of small molecule APOBEC3G DNA Deaminase Inhibitors via a fluorescence-based single-stranded DNA deaminase assay. [Related pubchem assays (depositor defined):AID493012, AID493028]; format: functional
DNA dC->dU-editing enzyme APOBEC-3G, sequence (Q9HC16 whole entry): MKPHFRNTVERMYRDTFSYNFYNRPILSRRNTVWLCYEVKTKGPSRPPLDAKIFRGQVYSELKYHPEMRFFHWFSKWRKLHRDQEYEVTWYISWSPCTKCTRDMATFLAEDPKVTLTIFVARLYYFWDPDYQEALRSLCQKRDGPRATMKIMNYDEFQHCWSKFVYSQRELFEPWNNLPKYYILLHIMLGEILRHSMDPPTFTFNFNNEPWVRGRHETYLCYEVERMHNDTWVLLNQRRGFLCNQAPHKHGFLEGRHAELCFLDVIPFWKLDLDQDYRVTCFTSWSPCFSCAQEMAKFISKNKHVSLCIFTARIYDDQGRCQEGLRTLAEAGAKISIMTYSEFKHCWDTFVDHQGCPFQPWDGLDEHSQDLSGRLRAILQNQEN

[15] = NIH-3T3 fibroblast cytotoxicity, dose response, cytotoxicity control, cell-based, fluorescence, Alamar Blue, secondary assay (AID 2327); format: functional;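 also: NIH-3T3 mouse fibroblasts cultured with fluconazole at 8 µg/mL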
[16] = C. albicans growth with fluconazole, confirmation, fluorescence, retest (AID 2467); format: functional, cell-based
[17] = target: ATP-dependent molecular chaperone HSP82 (Candida albicans (strain WO-1) (Yeast), UniProt C4YTQ8); assay: loss of DOC-induced GRE-beta-galactosidase reporter signal, dose response, Hsp90 inhibitor project, S. cerevisiae, luminescence (AID 2400); format: functional, cell-based;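 also: beta-galactosidase luminescence from glucocorticoid response element reporter as proxy for Hsp90 function; inhibitor potency where signal loss means Hsp90 inhibition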
ATP-dependent molecular chaperone HSP82, sequence (C4YTQ8 whole entry): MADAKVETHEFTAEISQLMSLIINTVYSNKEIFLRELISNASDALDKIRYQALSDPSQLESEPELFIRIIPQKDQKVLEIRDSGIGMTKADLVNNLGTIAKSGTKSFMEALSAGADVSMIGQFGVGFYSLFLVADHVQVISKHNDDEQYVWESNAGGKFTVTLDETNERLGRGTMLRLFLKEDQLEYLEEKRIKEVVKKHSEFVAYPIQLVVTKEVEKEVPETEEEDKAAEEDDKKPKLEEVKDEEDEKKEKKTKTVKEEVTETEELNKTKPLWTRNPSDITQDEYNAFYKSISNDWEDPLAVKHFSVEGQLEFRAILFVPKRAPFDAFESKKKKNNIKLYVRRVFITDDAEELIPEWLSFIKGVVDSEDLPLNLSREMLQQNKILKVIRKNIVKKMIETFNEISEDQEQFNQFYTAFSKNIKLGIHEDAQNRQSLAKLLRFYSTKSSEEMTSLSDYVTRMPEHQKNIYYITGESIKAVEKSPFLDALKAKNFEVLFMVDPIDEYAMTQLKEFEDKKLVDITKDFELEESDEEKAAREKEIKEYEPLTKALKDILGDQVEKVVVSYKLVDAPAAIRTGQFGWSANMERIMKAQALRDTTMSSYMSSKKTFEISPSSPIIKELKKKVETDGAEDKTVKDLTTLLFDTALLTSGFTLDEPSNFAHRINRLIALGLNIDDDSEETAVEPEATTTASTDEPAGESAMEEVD

[18] = target: T4, Serine/threonine-protein phosphatase (Candida dubliniensis (strain CD36 / CBS 7987 / NCPF 3949 / NRRLY-17841) (Yeast), UniProt B9W6M3); assay: calcineurin pathway inhibitors in yeast reporter, dose response, S. cerevisiae, CDRE-lacZ, luminescence, secondary (AID 2388); format: functional, cell-based;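 also: yeast reporter cells carrying a calcineurin-responsive lacZ construct stimulated with calcium chloride; luminescent beta-galactosidase reporter signal in whole cells rather than isolated phosphatase activity; potency for inhibition where a drop in reporter signal means calcineurin blockade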
T4 sequence (B9W6M3 whole entry): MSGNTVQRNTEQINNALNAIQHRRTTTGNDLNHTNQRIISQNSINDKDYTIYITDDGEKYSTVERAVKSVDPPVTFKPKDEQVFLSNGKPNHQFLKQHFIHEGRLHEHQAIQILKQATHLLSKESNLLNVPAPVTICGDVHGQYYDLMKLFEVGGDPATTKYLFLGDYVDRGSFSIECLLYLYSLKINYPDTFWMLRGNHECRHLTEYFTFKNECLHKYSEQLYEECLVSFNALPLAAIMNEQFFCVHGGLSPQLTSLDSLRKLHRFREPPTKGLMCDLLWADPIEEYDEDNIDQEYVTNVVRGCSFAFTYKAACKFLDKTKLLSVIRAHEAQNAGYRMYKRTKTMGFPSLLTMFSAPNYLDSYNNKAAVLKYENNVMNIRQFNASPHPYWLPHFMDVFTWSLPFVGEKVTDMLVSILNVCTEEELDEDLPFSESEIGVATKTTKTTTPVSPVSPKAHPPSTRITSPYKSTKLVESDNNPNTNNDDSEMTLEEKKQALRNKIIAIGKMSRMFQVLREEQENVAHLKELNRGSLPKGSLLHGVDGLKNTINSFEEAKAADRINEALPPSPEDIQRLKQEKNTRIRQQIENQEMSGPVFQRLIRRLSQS

[19] = target: Heat shock protein HSP 90-alpha (Homo sapiens, UniProt P07900); format: functional, organism-based
[20] = A Cell Based Secondary Assay To Explore Cytotoxicity of Compounds that Sensitize Mycobacterium Tuberculosis to Beta-Lactam Antibiotics.; format: functional
[21] = target: T5, DNA repair protein RAD52 homolog (Homo sapiens, UniProt P43351); format: functional, biochemical
T5 sequence (P43351 whole entry): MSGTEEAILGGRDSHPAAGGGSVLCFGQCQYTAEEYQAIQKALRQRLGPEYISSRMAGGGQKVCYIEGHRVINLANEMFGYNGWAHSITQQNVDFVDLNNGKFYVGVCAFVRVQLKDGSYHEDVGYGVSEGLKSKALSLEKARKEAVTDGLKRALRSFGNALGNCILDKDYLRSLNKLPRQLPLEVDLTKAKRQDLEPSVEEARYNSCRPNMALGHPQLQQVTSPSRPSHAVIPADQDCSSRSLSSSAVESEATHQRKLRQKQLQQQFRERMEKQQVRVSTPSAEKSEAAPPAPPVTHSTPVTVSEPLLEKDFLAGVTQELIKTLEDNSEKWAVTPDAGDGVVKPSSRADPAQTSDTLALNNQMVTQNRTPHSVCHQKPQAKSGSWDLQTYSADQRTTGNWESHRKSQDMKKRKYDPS

[22] = target: T6, Short transient receptor potential channel 4 (Mus musculus, UniProt Q9QUQ5); assay: mouse TRPC4 channel activators, dose response, cell-based, HEK293 TRPC4/mu-opioid, Fluo-4 calcium (AID 434937); format: functional
T6 sequence (Q9QUQ5 whole entry): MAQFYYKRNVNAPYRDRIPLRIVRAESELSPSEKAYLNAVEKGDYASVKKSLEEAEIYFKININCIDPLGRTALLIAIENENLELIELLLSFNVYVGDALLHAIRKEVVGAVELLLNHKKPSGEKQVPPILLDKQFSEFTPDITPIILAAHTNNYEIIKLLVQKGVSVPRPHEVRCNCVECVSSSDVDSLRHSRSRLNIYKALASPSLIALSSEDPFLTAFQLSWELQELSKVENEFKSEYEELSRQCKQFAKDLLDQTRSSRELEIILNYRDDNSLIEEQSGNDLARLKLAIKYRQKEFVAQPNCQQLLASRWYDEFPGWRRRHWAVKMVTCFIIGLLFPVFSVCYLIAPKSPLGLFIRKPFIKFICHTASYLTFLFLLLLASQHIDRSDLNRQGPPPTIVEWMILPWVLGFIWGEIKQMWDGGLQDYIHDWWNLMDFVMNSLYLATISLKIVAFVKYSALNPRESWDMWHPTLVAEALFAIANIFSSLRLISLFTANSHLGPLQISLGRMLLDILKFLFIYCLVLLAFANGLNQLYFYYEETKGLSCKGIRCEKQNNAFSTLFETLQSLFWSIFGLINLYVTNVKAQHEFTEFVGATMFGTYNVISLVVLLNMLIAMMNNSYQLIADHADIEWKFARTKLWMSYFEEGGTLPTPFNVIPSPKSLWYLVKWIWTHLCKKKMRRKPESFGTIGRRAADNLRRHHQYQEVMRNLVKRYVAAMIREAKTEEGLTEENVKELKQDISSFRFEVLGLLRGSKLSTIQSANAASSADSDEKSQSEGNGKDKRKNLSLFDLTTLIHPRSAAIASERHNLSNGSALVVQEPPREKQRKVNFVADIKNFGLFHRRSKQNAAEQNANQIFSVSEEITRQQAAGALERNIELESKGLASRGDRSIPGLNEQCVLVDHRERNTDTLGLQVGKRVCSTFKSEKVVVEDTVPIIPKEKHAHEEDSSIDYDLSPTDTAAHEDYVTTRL

## COc1ccc(C2CC(=O)C(C(c3ccc(O)cc3)C3C(=O)CC(c4ccc(OC)cc4)CC3=O)C(=O)C2)cc1 (stereo not given)
Coagulation factor XII
  IC50: > 50 µM (inactive)
Large T antigen
  IC50: 37.3 µM (active)

## CCOC(=O)C1(CCOc2ccccc2)CCN(Cc2ccc(C)s2)CC1
[1]
  EC50: > 92.5 µM (inactive)
[2]
  EC50: > 92.5 µM (inactive)
Mu-type opioid receptor
  EC50: > 92.5 µM (inactive)

## COc1ccc(-c2oc3ncnc(N)c3c2-c2ccccc2)cc1
[3]
  IC50: 7.81 µM (active)
Bcl-2-related protein A1
  IC50: > 20 µM (inactive)
[4]
  IC50: 3.58 µM (active)

## COc1cc(Br)cc(/C=N/NC(=O)Cc2ccc(C(F)(F)F)cc2[N+](=O)[O-])c1O
[5]
  EC50: > 120 µM (not active)
Streptococcus
  EC50: 2.42 µM (active)
[1]
  EC50: > 92.4 µM (inactive)
[6]
  EC50: 9.21 µM (active)
[7]
  EC50: 12.6 µM (active)
[2]
  EC50: > 92.4 µM (inactive)
INS1
  AC50: 4.33 µM (active)
Mu-type opioid receptor
  EC50: > 92.4 µM (inactive)
[8]
  EC50: 1.84 µM (active)

## NS(=O)(=O)c1ccc(-c2ccc(C=C3C(=O)NC(=O)NC3=O)o2)cc1
Genome polyprotein
  IC50: > 100 µM (active)
[9]
  IC50: 27.4 µM (inactive)
[10]
  AC50: 1.16 µM (active)

## COc1ccccc1NS(=O)(=O)c1cccc(NC(=O)c2ccc3ccccc3n2)c1
HEK293 [11]
  IC50: > 20 µM (inactive)
HEK293 [12]
  IC50: 7.38 µM (active)
HEK293 [13]
  EC50: 6.61 µM (active)

## CCN(CC)c1ccc(NC(=O)c2cccc(C)c2)cc1S(=O)(=O)Nc1ccccc1OC
[9]
  IC50: > 80 µM (inactive)
[14]
  IC50: 51.5 µM (active)

## Cc1ccc(OCC(=O)NNC(=S)NC(=O)C2CC2)c(C)c1
[15]
  EC50: > 150 µM (inactive)
[16]
  EC50: 1.25 µM (active)
[3]
  IC50: 3.27 µM (active)
Bcl-2-related protein A1
  IC50: > 20 µM (inactive)
[17]
  EC50: 14.3 µM (active)
[4]
  IC50: 1.59 µM (active)
[18]
  EC50: > 180 µM (inactive)
[19]
  AC50: 4.32 µM (active)

## O=C(CCCN1C(=O)c2cccc3cccc(c23)C1=O)NCc1cccnc1
Coagulation factor XII
  IC50: > 50 µM (inactive)

## CN1CCN(c2ccc(NC(=O)c3ccc(-c4cccc([N+](=O)[O-])c4)o3)cc2)CC1
[20]
  CC50: 29 µM (active)
[1]
  EC50: 70 µM (inactive)
[2]
  EC50: > 92.5 µM (inactive)
Mu-type opioid receptor
  EC50: > 30.8 µM (inactive)
[21]
  AC50: 10.3 µM (active)
[22]
  EC50: 0.299 µM (active)
